Patent publication US20240182443A1, “POLYMORPHIC FORMS OF COMPOUND AND PREPARATION METHOD THEREFOR AND APPLICATION THEREOF” (SHANGHAI MEIYUE BIOTECH DEVELOPMENT CO., LTD., priority 2021, published 2024)
Values after ≈ are worked out from the molar mass of the structure shown.

Legend:
Type in all cases: physicochemical
[1] = Test for effects of humidity on crystalline forms III and VII at 40° C. (XRPD); settings: for physical stability (XRPD) / crystalline form change (XRPD): 40° C., 23 h; for physical stability (XRPD): 70% RH; for crystalline form change (XRPD): 80% and 90% RH; for physical stability: at 70% RH or less
Method: Therefore, they were further studied at 40° C. for the effects of humidity.

[2] = Solid stability and chemical stability of crystalline forms III and VII (60° C./sealed and 40° C./75% RH/open, 7 days; HPLC, XRPD); settings: for chemical stability / crystalline form change (XRPD): 40° C./75% RH (open); for chemical stability / crystalline form change (XRPD) / physical and chemical stability / Purity-7 days (Area %): 7 days; for physical and chemical stability: 60° C. (sealed); for Purity-7 days (Area %) / Initial purity (Area %): HPLC; for Initial purity (Area %): before stability storage
Method: The crystalline forms III and VII were subjected to solid stability and chemical stability experiments under conditions of 60° C./sealed and 40° C./75% RH/open for 7 days. […] The amount of the crystalline form IV that formed in the crystalline form III is slightly greater than that in the crystalline form VII.

[3] = Solubility test in biological media (SGF, FaSSIF, FeSSIF) with XRPD of samples after the test; settings: for solubility at 0.5 h / solubility at 24 h / solubility at 2 h: thermodynamic from solid
Method: (§1) The solubility of both the crystalline forms III and VII increased with decreasing pH value of the biological medium. Both the crystalline forms were most soluble in SGF (0.323 mg/mL VS 0.183 mg/mL @ 0.5 h) and least soluble in FaSSIF (0.034 mg/mL VS 0.025 mg/mL @ 0.5 h). […] Both the crystalline forms degraded to a certain extent as the stirring continued in the solubility test. The crystalline forms of the crystalline forms III and VII in all the three biological media changed. […] Thus, the compound is unstable in biological media (Table 13).

[4] = DVS (dynamic vapor sorption) hygroscopicity test with XRPD of the post-DVS sample; settings: for hygroscopicity (DVS): within a range of 0-80% RH, 25° C.
Method: DVS tests were carried out using a dynamic vapor sorption instrument (Vsorp-Enhanced, proUmid) under the following conditions: adding a sufficient amount of a sample to the Vsorp-Enhanced instrument for simulation of dynamic vapor sorption, recording changes in weight at 25° C. with different humidity equilibrium levels, and subjecting the post-DVS test sample to an XRPD test.
The crystalline form III was characterized by XRPD, PLM, DSC, TGA and DVS. […] (FIG. 8). […] (FIG. 8). The DVS results (FIG. 9) show slight hygroscopicity at only 0.22% within a range of 0-80% RH.
The crystalline form VII was characterized by XRPD, PLM, DSC, TGA and DVS.

[5] = HPLC purity of the solubility test samples (stability in biological media); settings: for HPLC (24 h): calculated as 100% HPLC purity before; for HPLC purity change: all three biological media, calculated as 100% HPLC purity before standing in the media
Method: as §1

[6] = Competitive slurrying experiment of crystalline forms I, III, VII and IX in butanone and isopropyl acetate; settings: VII and IX slurried with butanone and isopropyl acetate
Method: A competitive slurrying experiment was carried out by slurrying a certain amount of each of the crystalline forms I, III, VII and IX with butanone and isopropyl acetate.

With `COc1cc2nn([C@H]3CC[C@](C)(O)CC3)cc2cc1NC(=O)c1cccc(C)[n+]1[O-]` [crystalline form III, 2-((2-(trans-4-hydroxy-cis-4-methylcyclohexyl)-6-methoxy-2H-indazol-5-yl)carbamoyl)-6-methylpyridine 1-oxide] as the molecule, how does the “physical stability (XRPD)” value [1] read?
The value was “physically stable”.

And the “crystalline form change (XRPD)” value [1]?
Its value is “a small amount of hydrate crystalline form IV formed”.

What about the physical stability [1] of the same molecule?
The physical stability was “physically stable”.

And the chemical stability [2]?
The chemical stability was “chemically stable”.

What about the “crystalline form change (XRPD)” value [2] of the same molecule?
The value was “a small amount of hydrate crystalline form IV formed”.

And the “physical and chemical stability” value [2]?
Its value is “physically and chemically stable”.

What about the “Purity-7 days (Area %)” value ([2]; 40° C./75% RH, open) of the same molecule?
The value was 99.96 Area %.

And the “Purity-7 days (Area %)” value ([2]; 60° C., sealed)?
Its value is 99.97 Area %.

And the “Initial purity (Area %)” value [2]?
The value was 99.96 Area %.

What about the “crystalline form after solubility test (XRPD)” value ([3]; FaSSIF) of the same molecule?
Its value is “transformed into the crystalline form IV”.

What about the pH ([3]; FaSSIF, 0.5 h) of the same molecule?
Its pH is 6.47.

What about the “Solubility” value ([3]; FaSSIF, 2 h) of the same molecule?
Its value is 9 µg/mL (≈ 21.9 µM).

What about the pH ([3]; FaSSIF, 2 h) of the same molecule?
The pH was 6.47.

And the pH ([3]; FaSSIF, 24 h)?
The pH was 6.45.

What about the solubility at 0.5 h ([3]; FaSSIF, 0.5 h) of the same molecule?
Its solubility at 0.5 h is 34 µg/mL (≈ 82.8 µM).

What about the solubility at 24 h ([3]; FaSSIF, 24 h) of the same molecule?
The solubility at 24 h was 7 µg/mL (≈ 17.1 µM).

What about the “crystalline form after solubility test (XRPD)” value ([3]; FeSSIF) of the same molecule?
Its value is “a crystal mixture of the crystalline forms IV and XIII”.

And the “Solubility” value ([3]; FeSSIF, 0.5 h)?
The value was 105 µg/mL (≈ 256 µM).

What about the pH ([3]; FeSSIF, 0.5 h) of the same molecule?
The pH was 4.88.

What about the “Solubility” value ([3]; FeSSIF, 2 h) of the same molecule?
Its value is 67 µg/mL (≈ 163 µM).

What about the pH ([3]; FeSSIF, 2 h) of the same molecule?
The pH was 4.92.

What about the “Solubility” value ([3]; FeSSIF, 24 h) of the same molecule?
The value was 58 µg/mL (≈ 141 µM).

What about the pH ([3]; FeSSIF, 24 h) of the same molecule?
The pH was 4.94.

And the “crystalline form after solubility test (XRPD)” value ([3]; SGF)?
Its value is “transformed into the crystalline form IV”.

What about the pH ([3]; SGF, 0.5 h) of the same molecule?
The pH was 1.09.

What about the “Solubility” value ([3]; SGF, 2 h) of the same molecule?
Its value is 289 µg/mL (≈ 704 µM).

What about the pH ([3]; SGF, 2 h) of the same molecule?
Its pH is 1.07.

And the “Solubility” value ([3]; SGF, 24 h)?
Its value is 89 µg/mL (≈ 217 µM).

What about the pH ([3]; SGF, 24 h) of the same molecule?
Its pH is 1.24.

And the solubility at 0.5 h ([3]; SGF, simulated gastric fluid, 0.5 h)?
Its solubility at 0.5 h is 323 µg/mL (≈ 787 µM).

And the “solubility at 0.5 h relative to crystalline form VII” value ([3]; all three biological media, 0.5 h)?
The value was 1.5 times.

And the “crystalline form after the DVS test (XRPD)” value [4]?
The value was “transformed into a crystal mixture of the crystalline forms III and IV”.

And the “hygroscopicity (DVS)” value [4]?
The value was 0.22%.

What about the “HPLC (24 h)” value ([5]; FaSSIF) of the same molecule?
Its value is 97.99%.

And the “HPLC (24 h)” value ([5]; FeSSIF)?
Its value is 96.89%.

What about the “HPLC (24 h)” value ([5]; SGF) of the same molecule?
The value was 99.69%.

And the HPLC purity change [5]?
The HPLC purity change was “decreased to a certain extent”.

Which “physical stability (XRPD)” value [1] does the source give for `COc1cc2nn([C@H]3CC[C@](C)(O)CC3)cc2cc1NC(=O)c1cccc(C)[n+]1[O-]` [crystalline form VII, 2-((2-(trans-4-hydroxy-cis-4-methylcyclohexyl)-6-methoxy-2H-indazol-5-yl)carbamoyl)-6-methylpyridine 1-oxide] here?
Its value is “physically stable”.

What about the “crystalline form change (XRPD)” value [1] of the same molecule?
The value was “a small amount of hydrate crystalline form IV formed”.

What about the physical stability [1] of the same molecule?
Its physical stability is “physically stable”.

And the chemical stability [2]?
Its chemical stability is “chemically stable”.

What about the “crystalline form change (XRPD)” value [2] of the same molecule?
The value was “a small amount of hydrate crystalline form IV formed”.

What about the “physical and chemical stability” value [2] of the same molecule?
Its value is “physically and chemically stable”.

And the “Purity-7 days (Area %)” value ([2]; 40° C./75% RH, open)?
Its value is 99.93 Area %.

What about the “Purity-7 days (Area %)” value ([2]; 60° C., sealed) of the same molecule?
Its value is 99.94 Area %.

And the “Initial purity (Area %)” value [2]?
Its value is 99.92 Area %.

And the “crystalline form after solubility test (XRPD)” value ([3]; FaSSIF)?
The value was “transformed into the crystalline form IV”.

And the Solubility ([3]; FaSSIF, 0.5 h)?
The Solubility was 25 µg/mL (≈ 60.9 µM).

And the pH ([3]; FaSSIF, 0.5 h)?
The pH was 6.42.

And the “Solubility” value ([3]; FaSSIF, 2 h)?
The value was 29 µg/mL (≈ 70.7 µM).

What about the pH ([3]; FaSSIF, 2 h) of the same molecule?
Its pH is 6.44.

And the “Solubility” value ([3]; FaSSIF, 24 h)?
Its value is 7 µg/mL (≈ 17.1 µM).

And the pH ([3]; FaSSIF, 24 h)?
Its pH is 6.48.

What about the “crystalline form after solubility test (XRPD)” value ([3]; FeSSIF) of the same molecule?
The value was “transformed into the crystalline form IV”.

And the pH ([3]; FeSSIF, 0.5 h)?
The pH was 4.86.

And the pH ([3]; FeSSIF, 2 h)?
The pH was 4.90.

And the pH ([3]; FeSSIF, 24 h)?
Its pH is 4.91.

And the solubility at 0.5 h ([3]; FeSSIF, 0.5 h)?
The solubility at 0.5 h was 68 µg/mL (≈ 166 µM).

And the solubility at 2 h ([3]; FeSSIF, 2 h)?
Its solubility at 2 h is 65 µg/mL (≈ 158 µM).

And the solubility at 24 h ([3]; FeSSIF, 24 h)?
Its solubility at 24 h is 65 µg/mL (≈ 158 µM).

And the “crystalline form after solubility test (XRPD)” value ([3]; SGF)?
Its value is “a crystal mixture of the crystalline forms IV and XV”.

What about the Solubility ([3]; SGF, 0.5 h) of the same molecule?
Its Solubility is 183 µg/mL (≈ 446 µM).

What about the pH ([3]; SGF, 0.5 h) of the same molecule?
Its pH is 1.23.

What about the pH ([3]; SGF, 2 h) of the same molecule?
The pH was 1.16.

And the pH ([3]; SGF, 24 h)?
Its pH is 1.26.

What about the solubility at 2 h ([3]; SGF, simulated gastric fluid, 2 h) of the same molecule?
Its solubility at 2 h is 147 µg/mL (≈ 358 µM).

And the solubility at 24 h ([3]; SGF, simulated gastric fluid, 24 h)?
Its solubility at 24 h is 92 µg/mL (≈ 224 µM).

And the “crystalline form after the DVS test (XRPD)” value [4]?
The value was “remained the same as that before the DVS test”.

And the “hygroscopicity (DVS)” value [4]?
Its value is 0.29%.

And the “HPLC (24 h)” value ([5]; FaSSIF)?
The value was 93.49%.

What about the “HPLC (24 h)” value ([5]; FeSSIF) of the same molecule?
The value was 93.13%.

And the “HPLC (24 h)” value ([5]; SGF)?
Its value is 99.46%.

And the HPLC purity change [5]?
Its HPLC purity change is “decreased to a certain extent”.

What about the “crystalline form resulting from competitive slurrying” value [6] of the same molecule?
The value was “can be produced from various slurrying processes”.
